{"source": "paper PMC8428848", "about": "“Ancient role of sulfakinin/cholecystokinin-type signalling in inhibitory regulation of feeding processes revealed in an echinoderm” (eLife, 2021)", "key": {"[1]": {"tested_on": "apical muscle preparations", "assay": "In vitro contraction of apical muscle preparations (organ bath)", "set-up": "species or system Asterias rubens", "conditions": "for contracting action on apical muscle, % of the effect of 10 µM acetylcholine: highest concentration tested (1 µM), n = 20–23; for contraction of apical muscle preparations: in vitro", "method": "(§1) Effects of peptides on preparations were tested and recorded using an isotonic transducer (MLT0015, ADInstruments Pty Ltd) connected to a bridge amplifier (FE221 Bridge Amp, ADInstruments Pty Ltd) linked to PowerLab data acquisition hardware (2/36, ADInstruments Pty Ltd). Data were collected and analysed using LabChart (RRID:SCR_017551; v8.0.7) software installed on a laptop computer (Lenovo E540, Windows 7 Professional). Stock solutions of synthetic peptides were prepared in distilled water and added to the organ bath to achieve final concentrations ranging from 0.1 nM to 1 μM. To assess the viability of preparations and to enable normalization of responses to ArSK/CCK1 or ArSK/CCK2, the starfish neuropeptide NGFFYamide (100 nM) was tested on cardiac stomach preparations and acetylcholine (10 µM) was tested on tube foot and apical muscle preparations. To assess the importance of tyrosine sulphation for peptide bioactivity, a non-sulphated analog of ArSK/CCK2 (ArSK/CCK2(ns)) was also tested on cardiac stomach (n = 5), tube foot, and apical muscle preparations (data not shown)."}, "ArSK/CCKR": {"target": "T1, ArSK/CCKR (Asterias rubens, UniProt A0A8F2ZGB9)", "T1 sequence (A0A8F2ZGB9 1-434)": "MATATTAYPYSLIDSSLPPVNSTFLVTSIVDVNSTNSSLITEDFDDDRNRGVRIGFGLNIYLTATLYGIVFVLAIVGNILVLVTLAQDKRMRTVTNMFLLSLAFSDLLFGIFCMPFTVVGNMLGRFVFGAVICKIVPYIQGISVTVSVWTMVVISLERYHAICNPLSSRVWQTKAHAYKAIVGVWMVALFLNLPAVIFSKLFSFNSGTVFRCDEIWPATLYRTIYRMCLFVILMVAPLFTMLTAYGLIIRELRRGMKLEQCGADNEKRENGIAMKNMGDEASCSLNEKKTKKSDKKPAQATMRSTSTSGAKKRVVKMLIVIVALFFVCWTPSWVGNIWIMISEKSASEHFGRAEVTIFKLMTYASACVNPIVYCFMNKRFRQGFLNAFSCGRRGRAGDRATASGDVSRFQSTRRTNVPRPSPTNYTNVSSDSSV", "assay": "Aequorin bioluminescence receptor assay in CHO-K1 cells (G5A) co-transfected with ArSK/CCKR and human Gα16", "type": "cell-based", "conditions": "for EC50: luminescence as % of maximal response, four to six independent transfections, two to three replicates each, 3 × 10^−17 to 10^−4 M", "description": "(§2) To enable testing of ArSK/CCK1 and ArSK/CCK2 as candidate ligands for ArSK/CCKR, a full-length cDNA encoding ArSK/CCKR was synthesized by GenScript (Piscataway, NJ) and cloned into pcDNA 3.1+ vector (Invitrogen, Thermo Fisher Scientific, Waltham, MA). A partial Kozak translation initiation sequence (CACC) was introduced upstream to the start codon (ATG). CHO-K1 cells stably expressing the mitochondrial targeted calcium-sensitive bioluminescent reporter GFP-aequorin fusion protein (G5A) ([Baubet et al., 2000]) were used as a heterologous expression system for ArSK/CCKR. These cells have been used previously for neuropeptide receptor deorphanisation ([Bauknecht and Jékely, 2015]) and were generously supplied to us by Dr Gáspár Jékely (University of Exeter). The cell line was generated using the CHO-K1 cell line from Sigma-Aldrich (85051005; RRID: CVCL_0214), which is certified by the European Collection of Authenticated Cell Cultures (ECACC), and expression of the GFP-aequorin fusion protein (G5A) in the cell line was determined by functionality in displaying calcium-activated luminescence. […] Cells were cultured, co-transfected with the pcDNA 3.1+ vector containing the ArSK/CCKR cDNA sequence and plasmids encoding the promiscuous human G-protein Gα16. Then bioluminescence-based receptor assays were performed, as described previously for A. rubens luqin-type receptors ([Yañez-Guerra et al., 2018]).\n[…] Concentration-response data were determined as a percentage of the highest response for each peptide (100% activation). EC50 values were calculated from concentration-response curves based on four to six independent transfections and averaging two to three replicates in each transfection using Prism 6.0 (RRID:SCR_002798; GraphPad software, La Jolla, CA). Cells transfected with an empty vector were used for control experiments."}, "Asterias rubens": {"tested_on": "Asterias rubens", "assay": "In vivo retraction of the everted cardiac stomach after injection", "conditions": "for cardiac stomach retraction in vivo: injection of 10 nmol (10 μl of 1 mM) into perivisceral coelom, eversion induced with 2% MgCl2 in seawater, 6 min; for reduction in the area of cardiac stomach everted: within 360 s after injection of 10 mol (10 µl 1 mM), normalized to area at T0, n = 6 (ArSK/CCK1), 6 (ArSK/CCK2), 8 (ArSK/CCK2(ns))", "method": "Therefore, experiments were performed to investigate if ArSK/CCK1 and ArSK/CCK2 also trigger cardiac stomach retraction in A. rubens. Twenty specimens of A. rubens, which had been withheld from a food supply for 1 week, were placed in a glass tank containing 2% magnesium chloride (MgCl2; Sigma-Aldrich, Gillingham, UK) dissolved in seawater, which acts as a muscle relaxant in marine invertebrates ([Mayer, 1909]). This treatment conveniently and reproducibly causes eversion of the cardiac stomach in A. rubens, typically within a period of ~30 min ([Semmens et al., 2013]). Hamilton 75 N 10 μl syringes (Sigma-Aldrich, Gillingham, UK) were used to inject test compounds into the perivisceral coelom of animals, inserting the needle through the aboral body wall of the arms proximal to the junctions with the central disk region. Care was taken to inject neuropeptides (ArSK/CCK1, ArSK/CCK2 and ArSK/CCK2(ns)) or distilled water (control) into the perivisceral coelom and not into the cardiac stomach. All animals were first injected with 10 μl of distilled water (control) and video-recorded for 6 min. The same animals were then injected with 10 μl of 1 mM peptide (10 nmol) and video-recorded for 6 min. Static images from video recordings were captured at 30 s intervals from the time of injection. Then the two-dimensional area of everted cardiac stomach was measured from the images using the ImageJ software (version 1.0; http://rsb.info.nih.gov/ij) and normalized as a percentage of the area of cardiac stomach everted at the time of injection (T0)."}, "tube foot preparations": {"tested_on": "tube foot preparations", "assay": "In vitro contraction of tube foot preparations (organ bath)", "set-up": "species or system Asterias rubens", "conditions": "for contraction of tube foot preparations: in vitro, 1 nM to 1 µM, n = 8–10; for mean effect on tube foot preparations, % of the effect of 10 µM acetylcholine: peptide 1 µM", "method": "as §1"}, "[2]": {"tested_on": "cardiac stomach preparations", "assay": "In vitro contraction of cardiac stomach preparations (organ bath)", "set-up": "species or system Asterias rubens", "conditions": "for contraction of cardiac stomach preparations: in vitro, 1 nM to 1 μM, n = 5–9; for effect compared with NGFFYamide (100 nM): peptide 1 µM, Student's t-test p > 0.05, data not shown", "method": "as §1"}, "[3]": {"tested_on": "CHO-K1 cells transfected with an empty vector", "assay": "Control: CHO-K1 aequorin (G5A) cells transfected with empty pcDNA 3.1(+) vector", "type": "cell-based, Chinese hamster", "description": "as §2\nThe peptides were diluted in distilled water and tested as candidate ligands for ArSK/CCKR at concentrations ranging from 3 × 10^−17 to 10^−4 M. Concentration-response data were determined as a percentage of the highest response for each peptide (100% activation). EC50 values were calculated from concentration-response curves based on four to six independent transfections and averaging two to three replicates in each transfection using Prism 6.0 (RRID:SCR_002798; GraphPad software, La Jolla, CA). Cells transfected with an empty vector were used for control experiments."}}, "note": "Square brackets hold non-standard residues; d marks the D form. Peptide text beside a SMILES is read from it. sY = N[C@@H](Cc1ccc(OS(=O)(=O)O)cc1)C(=O)O; pGlu = O=C1CC[C@@H](C(=O)O)N1", "data": [{"smiles": "CC(C)C[C@H](NC(=O)CNC(=O)[C@H](Cc1c[nH]cn1)NC(=O)CNC(=O)[C@H](Cc1ccc(OS(=O)(=O)O)cc1)NC(=O)[C@H](CC(=O)O)NC(=O)[C@H](CC(=O)O)NC(=O)[C@@H](NC(=O)[C@H](CCCCN)NC(=O)[C@H](CO)NC(=O)[C@@H]1CCC(=O)N1)C(C)C)C(=O)N[C@@H](Cc1ccccc1)C(=O)N[C@@H](Cc1c[nH]c2ccccc12)C(N)=O", "note": "[ArSK/CCK1] ([pGlu]SKVDD[sY]GHGLFW-NH2)", "values": [{"measurement": "contracting action on apical muscle, % of the effect of 10 µM acetylcholine", "setting": "[1]", "value": "~ 40%"}, {"measurement": "contraction of apical muscle preparations", "setting": "[1]", "value": "caused contraction"}, {"measurement": "EC50", "setting": "ArSK/CCKR", "value": 0.25, "unit": "nM"}, {"measurement": "cardiac stomach retraction in vivo", "setting": "Asterias rubens", "value": "triggered cardiac stomach retraction"}, {"measurement": "reduction in the area of cardiac stomach everted", "setting": "Asterias rubens", "value": "> 50", "unit": "%"}, {"measurement": "effectiveness on tube foot preparations compared with ArSK/CCK2", "setting": "tube foot preparations; 25 and 100 nM, Bonferroni's test p < 0.01 and 0.05", "value": "significantly more effective than ArSK/CCK2"}, {"measurement": "contraction of tube foot preparations", "setting": "tube foot preparations", "value": "concentration-dependent contraction"}, {"measurement": "mean effect on tube foot preparations, % of the effect of 10 µM acetylcholine", "setting": "tube foot preparations", "value": "~ 220%"}, {"measurement": "contraction of cardiac stomach preparations", "setting": "[2]", "value": "concentration-dependent contraction"}, {"measurement": "effect compared with NGFFYamide (100 nM)", "setting": "[2]", "value": "not significantly different"}, {"measurement": "luminescence response", "setting": "[3]", "value": "did not elicit luminescence responses"}]}, {"smiles": "CC(C)C[C@H](NC(=O)CNC(=O)[C@H](Cc1ccccc1)NC(=O)CNC(=O)[C@H](Cc1ccc(O)cc1)NC(=O)[C@H](CCC(N)=O)NC(=O)[C@H](CC(=O)O)NC(=O)[C@H](CC(=O)O)NC(=O)CNC(=O)CN)C(=O)N[C@@H](Cc1ccccc1)C(=O)N[C@@H](Cc1ccccc1)C(N)=O", "note": "[ArSK/CCK2(ns)] (H-GGDDQYGFGLFF-NH2; N-terminus assumed)", "values": [{"measurement": "contraction of apical muscle preparations", "setting": "[1]", "value": "no effect"}, {"measurement": "potency as ligand for ArSK/CCKR compared with ArSK/CCK1 and ArSK/CCK2", "setting": "ArSK/CCKR; from EC50 values", "value": "five to six orders of magnitude less potent"}, {"measurement": "EC50", "setting": "ArSK/CCKR", "value": 48000, "unit": "nM"}, {"measurement": "cardiac stomach retraction in vivo", "setting": "Asterias rubens", "value": "did not trigger cardiac stomach retraction"}, {"measurement": "reduction in the area of cardiac stomach everted", "setting": "Asterias rubens", "value": "no effect"}, {"measurement": "contraction of tube foot preparations", "setting": "tube foot preparations", "value": "did not cause contraction"}, {"measurement": "contraction of cardiac stomach preparations", "setting": "[2]", "value": "modest contraction"}, {"measurement": "luminescence response", "setting": "[3]", "value": "did not elicit luminescence responses"}]}, {"smiles": "CC(C)C[C@H](NC(=O)CNC(=O)[C@H](Cc1ccccc1)NC(=O)CNC(=O)[C@H](Cc1ccc(OS(=O)(=O)O)cc1)NC(=O)[C@H](CCC(N)=O)NC(=O)[C@H](CC(=O)O)NC(=O)[C@H](CC(=O)O)NC(=O)CNC(=O)CN)C(=O)N[C@@H](Cc1ccccc1)C(=O)N[C@@H](Cc1ccccc1)C(N)=O", "note": "[ArSK/CCK2] (H-GGDDQ[sY]GFGLFF-NH2; N-terminus assumed)", "values": [{"measurement": "contracting action on apical muscle, % of the effect of 10 µM acetylcholine", "setting": "[1]", "value": "~ 40%"}, {"measurement": "contraction of apical muscle preparations", "setting": "[1]", "value": "caused contraction"}, {"measurement": "EC50", "setting": "ArSK/CCKR", "value": 0.12, "unit": "nM"}, {"measurement": "cardiac stomach retraction in vivo", "setting": "Asterias rubens", "value": "triggered cardiac stomach retraction"}, {"measurement": "reduction in the area of cardiac stomach everted", "setting": "Asterias rubens", "value": "> 50", "unit": "%"}, {"measurement": "contraction of tube foot preparations", "setting": "tube foot preparations", "value": "concentration-dependent contraction"}, {"measurement": "mean effect on tube foot preparations, % of the effect of 10 µM acetylcholine", "setting": "tube foot preparations", "value": "~ 110%"}, {"measurement": "contraction of cardiac stomach preparations", "setting": "[2]", "value": "concentration-dependent contraction"}, {"measurement": "effect compared with NGFFYamide (100 nM)", "setting": "[2]", "value": "not significantly different"}, {"measurement": "luminescence response", "setting": "[3]", "value": "did not elicit luminescence responses"}]}]}
